Source: patent publication US7268241B2, “Method for the production of 4-(17$g(a)-methyl substituted 3-oxoestra-4 9-dien-11$g(b)-yl)benzaldehyd-(1e or 1z)-oximes” (Schering AG, priority 2000, dated 2007)

Experiments:
Glucocorticoid Receptor = target: T1, Glucocorticoid Receptor (Rattus norvegicus, UniProt P06536); assay: Receptor binding affinity, competitive binding of 3H-Dexamethasone tracer in thymus cytosol; conditions: relative binding affinity; thymus cytosol of the adrenalectomized rat; tracer 3H-Dexamethasone; reference Dexamethasone = 100%
T1 construct: receptors in the cytosol from animal target organs; from tissue; host or cells: thymus cytosol of adrenalectomized rat
T1 sequence (P06536 1-795): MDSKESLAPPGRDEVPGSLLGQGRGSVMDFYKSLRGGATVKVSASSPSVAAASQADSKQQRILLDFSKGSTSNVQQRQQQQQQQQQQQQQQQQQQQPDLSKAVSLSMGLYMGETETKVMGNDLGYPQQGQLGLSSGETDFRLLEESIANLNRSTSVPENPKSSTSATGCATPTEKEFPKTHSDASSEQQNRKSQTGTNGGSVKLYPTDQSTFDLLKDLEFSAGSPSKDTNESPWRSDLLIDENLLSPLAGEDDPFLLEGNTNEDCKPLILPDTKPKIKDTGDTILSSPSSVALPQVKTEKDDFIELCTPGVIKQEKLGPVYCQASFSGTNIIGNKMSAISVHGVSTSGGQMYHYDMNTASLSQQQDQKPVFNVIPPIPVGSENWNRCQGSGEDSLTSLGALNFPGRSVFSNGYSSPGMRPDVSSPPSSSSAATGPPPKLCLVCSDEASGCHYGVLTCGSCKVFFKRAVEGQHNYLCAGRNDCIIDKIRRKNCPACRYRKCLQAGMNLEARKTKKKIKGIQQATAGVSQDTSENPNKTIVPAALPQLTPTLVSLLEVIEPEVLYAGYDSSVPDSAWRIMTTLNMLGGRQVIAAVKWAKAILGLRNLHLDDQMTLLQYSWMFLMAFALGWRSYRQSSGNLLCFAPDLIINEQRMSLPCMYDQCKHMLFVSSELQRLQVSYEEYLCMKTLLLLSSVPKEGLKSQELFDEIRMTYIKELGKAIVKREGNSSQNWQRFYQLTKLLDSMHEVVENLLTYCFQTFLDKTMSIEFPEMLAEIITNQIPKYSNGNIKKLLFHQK
Protocol: (§1) The receptor binding affinity was determined by competitive binding of a specifically binding ^3H-labeled tracer and the compound to be tested to receptors in the cytosol from animal target organs. In this case, receptor saturation and reaction equilibrium in the case of the following reaction conditions were sought:
(§2) Uterus cytosol of the estradiol-primed rabbit, stored at −30° C., in TED buffer (20 mmol of Tris/HCl, pH 7.4; 1 mmol of ethylenediamine tetraacetate, 2 mmol of dithiothreitol) with 250 mmol of saccharose. • Tracer: ^3H—ORG 2058 • Reference substance: Progesterone Glucocorticoid Receptor: • Thymus cytosol of the adrenalectomized rat, thymi stored at −30° C.; TED buffer • Tracer: ^3H-Dexamethasone, 20 nmol • Reference substance: Dexamethasone

pregnancy in the rat = assay: Early-abortive action in the rat; assay type: in vivo; conditions: subcutaneous, 5th to 7th day of pregnancy; dose giving complete inhibition of pregnancy
Protocol: The early-abortive action was determined in the rat after subcutaneous administration from the 5th to the 7th day of pregnancy [administration 0.2 ml/animal/day in benzyl benzoate/castor oil (1+4 v/v)]. The dose indicates what amount must be given to at least 4 animals apiece in comparison to untreated animals, so that a complete inhibition of pregnancy is achieved.

Progesterone Receptor = target: T2, Progesterone Receptor (Oryctolagus cuniculus, UniProt P06186); assay: Receptor binding affinity, competitive binding of 3H-ORG 2058 tracer in uterus cytosol; conditions: relative binding affinity; uterus cytosol of the estradiol-primed rabbit; tracer 3H-ORG 2058; reference Progesterone = 100%
T2 construct: receptors in the cytosol from animal target organs; from tissue; host or cells: uterus cytosol of estradiol-primed rabbit
T2 sequence (P06186 1-930): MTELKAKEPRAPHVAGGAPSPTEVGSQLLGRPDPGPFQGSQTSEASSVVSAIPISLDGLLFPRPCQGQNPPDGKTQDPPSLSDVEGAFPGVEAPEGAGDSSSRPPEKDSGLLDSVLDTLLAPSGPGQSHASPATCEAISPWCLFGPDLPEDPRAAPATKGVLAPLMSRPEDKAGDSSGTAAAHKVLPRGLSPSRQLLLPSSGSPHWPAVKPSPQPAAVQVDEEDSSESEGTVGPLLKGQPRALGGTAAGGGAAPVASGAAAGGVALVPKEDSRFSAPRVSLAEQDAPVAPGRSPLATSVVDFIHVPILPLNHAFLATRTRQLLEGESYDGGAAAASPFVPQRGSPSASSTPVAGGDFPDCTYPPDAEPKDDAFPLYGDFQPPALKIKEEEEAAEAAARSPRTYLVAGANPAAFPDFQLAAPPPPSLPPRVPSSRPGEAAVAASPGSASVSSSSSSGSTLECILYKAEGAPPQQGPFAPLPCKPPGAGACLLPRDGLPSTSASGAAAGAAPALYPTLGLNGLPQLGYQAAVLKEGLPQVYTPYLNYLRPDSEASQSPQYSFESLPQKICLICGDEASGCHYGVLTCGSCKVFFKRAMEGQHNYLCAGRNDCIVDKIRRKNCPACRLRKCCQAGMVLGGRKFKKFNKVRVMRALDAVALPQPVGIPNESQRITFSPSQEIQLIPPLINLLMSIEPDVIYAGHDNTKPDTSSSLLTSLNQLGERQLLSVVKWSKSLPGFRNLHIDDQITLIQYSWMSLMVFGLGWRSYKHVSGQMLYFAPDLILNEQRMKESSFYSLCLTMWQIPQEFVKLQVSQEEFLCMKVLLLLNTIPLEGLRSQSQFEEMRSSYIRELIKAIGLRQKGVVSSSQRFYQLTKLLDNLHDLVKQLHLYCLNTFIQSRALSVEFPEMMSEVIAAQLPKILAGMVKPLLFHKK
Protocol: as §1, §2

| SMILES | Glucocorticoid Receptor [Dexamethasone = 100%] (Glucocorticoid Receptor) [%] | 100% Early-abortive Action in the Rat (pregnancy in the rat) [mg/animal/day] | Progesterone Receptor [Progesterone = 100%] (Progesterone Receptor) [%] |
| --- | --- | --- | --- |
| CC12CC(c3ccc(C=NO)cc3)C3=C4CCC(=O)C=C4CCC3C1CCC2(O)COCC(F)(F)F (stereo not drawn) [4-[17β-Hydroxy-(17α-(1,1,1-trifluoroethoxymethyl)-3-oxoestra-4,9-dien-11β-yl]benzaldehyde-1E-oxime] | 94 | 3.0 | 177 |
| COCC1(O)CCC2C3CCC4=CC(=O)CCC4=C3C(c3ccc(C=NO)cc3)CC21C (stereo not drawn) [4-[17β-Hydroxy-(17α-(methoxymethyl)-3-oxoestra-4,9-dien-11β-] [4-[17β-Hydroxy-17α-(methoxymethyl)-3-oxoestra-4,9-dien-11β-yl]benzaldehyde-1E-oxime] | 76 | 1.0 |  |
| CC#C[C@]1(O)CC[C@H]2[C@@H]3CCC4=CC(=O)CCC4=C3[C@@H](c3ccc(N(C)C)cc3)C[C@@]21C [Ru 38 486, reference compound] |  | 3.0 | 685 |
| COC[C@]1(OC)CC[C@H]2[C@@H]3CCC4=CC(=O)CCC4=C3[C@@H](c3ccc(/C=N/O)cc3)C[C@@]21C [4-[17β-Methoxy-17α-(methoxymethyl)-3-oxoestra-4,9-dien-11β-yl] benzaldehyde-1E-oxime] | 78 | 1.0 | 302 |
| COCC1(O)CCC2C3CCC4=CC(=O)CCC4=C3C(c3ccc(C=NO)cc3)CC21C (stereo not drawn) [4-[17β-Hydroxy-(17α-(methoxymethyl)-3-oxoestra-4,9-dien-11β-] [4-[17β-hydroxy-17α-(methoxymethyl)-3-oxoestra-4,9-dien-11β-yl]benzaldehyde-1Z-oxime] | 67 |  |  |
| COCC1(OC)CCC2C3CCC4=CC(=O)CCC4=C3C(c3ccc(C=NO)cc3)CC21C (stereo not drawn) [4-[17β-methoxy-17α-(methoxymethyl)-3-oxoestra-4,9-dien-11β-yl]benzaldehyde-1Z-oxime] | 52 | 1.0 | 126 |
